Assay results: US20150328191A1, “USE OF PIDOTIMOD TO TREAT PSORIASIS” (POLICHEM S.A., priority 2012, published 2015)
Peptide text beside a SMILES is read from it.

System: psoriatic patients (mild psoriasis)
Experiment: Evaluation of pidotimod in psoriatic patients by PASI evaluation; safety also evaluated
Assay type: in vivo, human
Settings: 800 mg daily oral, 12 weeks
Procedure: An evaluation of the activity of pidotimod was tested on psoriatic patients, in order to assess the efficacy in terms of improvement of the pathology by means of PASI evaluation. The safety of the treatment was also evaluated. The study was performed in 5 patients (3 males and 2 females, aged between 31-53, mean=42) with a clinical diagnosis of mild psoriasis of at least 6 months. […] The body surface area involvement at the baseline was ≦10% with a PASI value ≦10.
The study product was taken with the composition of the Example 6 at a dosage of two oral vials daily, i.e. 800 mg daily of the active ingredient, taken far from mealtimes.
During the trial, the following visits were performed: • baseline—T0 (before the product use) • intermediate visit—T6 (after 6 weeks of treatment) • final visit—T12 (after 12 weeks of treatment)
No relevant event, which may have interfered to the test results, occurred during the study period.
The efficacy of the product was expressed by mean of values of PASI evaluation, assessing the PASI at the baseline and at the intermediate visit and the final one.

O=C1CC[C@@H](C(=O)N2CSC[C@H]2C(=O)O)N1 [pidotimod, (4R)-3-(5-oxo-L-prolyl)-1,3-thiazolidine-4-carboxylic acid] (HELM PEPTIDE1{[Glp].[O=C(O)[C@@H]1CSCN1[*:1]]}$$$$V2.0)
Side effects (5 patients): no side effects were reported
Tolerability of the treatment (5 patients): very well tolerated
Student t test p for decrease of the PASI value at T12 (end of treatment) vs. T0 (baseline) (5 patients, statistically significant decrease): < 0.05
Improvement in the clinical evidences of the illness (all 5 patients): important improvement
